From US8541419B2, “Isotopically enriched pyrimidin-5-yl acetic acid derivatives as CRTH2 antagonists” (Actimis Pharmaceuticals, Inc., priority 2008, dated 2013)
Values joined by “and” are separate entries in the source; they are usually repeats but may differ in a detail not shown here. Equal values may be shown once. Marks after values point to notes of the source that are not given here. One block for each molecule: values may come before it.

Legend:
[1] = Pharmacokinetics in male Han Wistar rats after simultaneous intravenous administration; assay type: in vivo; design: AUC0-t / AUC0-∞: concentration or dose not given beside the values
Excerpt: (§1) The pharmacokinetics and bioavailability of [4,6-bis([^2H6]dimethylamino)-2-(4-{[4-(trifluoromethyl)benzoyl]amino}benzyl)pyrimidin-5-yl]acetic acid (1) and [4,6-bisdimethylamino)-2-(4-{[4-(trifluoromethyl)benzoyl]amino}benzyl)pyrimidin-5-yl]acetic acid (“the undeuterated analog”) were compared in male Han Wistar rats after intravenous (“IV”) and oral (“PO”) administration.
(§2) The following additional acronyms and definitions are used in the study: • AUC0-∞—area under the plasma concentration time curve from time 0 to infinity • AUC0-t—area under the plasma concentration time curve from time 0 to the last quantifiable timepoint • AUMC—area under the first moment curve • CL—total plasma clearance • Cmax—maximum plasma concentration • MRT—mean residence time • PEG—polyethylene glycol • t½—elimination half-life • tmax—time of maximum plasma concentration • Vss—steady-state volume of distribution
(§3) Compound 1 (1.02 mg/kg) and the undeuterated analog (1.0 mg/kg) and were administered simultaneously as a solution in PEG 400:ethanol:water (40:10:50) both intravenously and orally (by gavage) to four male rats per dose route. The doses were equivalent on a molar basis. Blood samples were collected serially up to 48 h postdose. […] Noncompartmental pharmacokinetic parameters were calculated and the results compared statistically using paired t-tests, since the simultaneous administration of both compounds allows each rat to serve as its own control.

[2] = Pharmacokinetics and bioavailability in male Han Wistar rats after simultaneous oral administration; assay type: in vivo; design: AUC0-t / AUC0-∞: concentration or dose not given beside the values
Excerpt: as §1, §2, §3

CRTH2 = biological target: T1, CRTH2 (Homo sapiens, UniProt Q9Y5Y4); experiment: Biological inhibitory activity in vitro
T1 sequence (Q9Y5Y4 1-395): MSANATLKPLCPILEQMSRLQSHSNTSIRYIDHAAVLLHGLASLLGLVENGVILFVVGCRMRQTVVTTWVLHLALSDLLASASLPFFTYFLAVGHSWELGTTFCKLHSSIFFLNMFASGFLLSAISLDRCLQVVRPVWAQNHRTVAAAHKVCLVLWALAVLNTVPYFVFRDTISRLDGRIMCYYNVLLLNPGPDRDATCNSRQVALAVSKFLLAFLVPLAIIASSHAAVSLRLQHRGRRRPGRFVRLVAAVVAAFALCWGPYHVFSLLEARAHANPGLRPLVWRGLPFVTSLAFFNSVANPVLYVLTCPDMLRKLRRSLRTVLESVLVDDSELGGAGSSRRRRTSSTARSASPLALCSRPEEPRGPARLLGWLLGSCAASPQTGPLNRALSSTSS

[3] = IV, individual rats, listed as H
[4] = oral, individual rats, listed as H
[5] = male, Han Wistar, rat, in vivo, iv
[6] = male, Han Wistar, rat, in vivo, po

Plasma Concentrations ([1]; IV, 8 h, mean): 84.4 ng/mL
Plasma Concentrations ([1]; IV, 24 h, mean): 5.02 ng/mL
Plasma Concentrations ([1]; IV, 48 h, individual rats): 1.01 ng/mL
t1/2 ([1]; IV, harmonic mean N=4, listed as H): 3.23 ± 1.99 h and 3.23^b h
MRT [1, 3]: 2.43 h and 2.20 h and 1.26 h and 0.569 h
t1/2 [1, 3]: 6.68 h and 3.12 h and 3.60 h and 2.03 h
CL ([1]; IV, mean N=4, listed as H): 2.17 ± 1.07 mL/min/kg and 2.17 mL/min/kg
MRT ([1]; IV, mean N=4, listed as H): 1.62 ± 0.861 h and 1.62 h
Vss ([1]; IV, mean N=4, listed as H): 0.186 ± 0.101 L/kg and 0.186 L/kg
Plasma Concentrations ([2]; oral, 0.25 h, mean): 992 ng/mL and 1980 nM
Plasma Concentrations ([2]; oral, 0.5 h, mean): 1,490 ng/mL and 2960 nM
Plasma Concentrations ([2]; oral, 1 h, mean): 1,330 ng/mL and 2660 nM
Plasma Concentrations ([2]; oral, 2 h, mean): 601 ng/mL and 1200 nM
Plasma Concentrations ([2]; oral, 4 h, mean): 209 ng/mL and 511 nM
Plasma Concentrations ([2]; oral, 6 h, mean): 132 ng/mL and 262 nM
Plasma Concentrations ([2]; oral, 8 h, mean): 81.2 ng/mL and 162 nM
Plasma Concentrations ([2]; oral, 24 h, mean): 1.29 ng/mL and 2.57 nM
Plasma Concentrations ([2]; oral, 48 h, mean): 0.393 ng/mL and 0.783 nM
t1/2 ([2]; oral, harmonic mean N=4, listed as H): 2.39 ± 2.11 h and 2.39^d h
Bioavailability [2, 4]: 10.3% and 4.06% and 50.5% and 20.6%
Cmax [2, 4]: 2.11 µM and 0.708 µM and 6.34 µM and 3.17 µM
MRT [2, 4]: 1.40 h and 4.25 h and 3.36 h and 3.47 h
t1/2 [2, 4]: 1.10 h and 5.02 h and 2.57 h and 5.63 h
tmax [2, 4]: 0.5 h (3×) and 1 h
Cmax ([2]; oral, mean N=4): 3.08 µM
AUC0-t ([2]; oral, mean N=4, listed as H): 8,070 ± 7,950 nM · h and 8,070 nM · h
AUC0-∞ ([2]; oral, mean N=4, listed as H): 8,160 ± 7,880 nM · h and 8,160 nM · h
Bioavailability ([2]; oral, mean N=4, listed as H): 21.3%
MRT ([2]; oral, mean N=4, listed as H): 3.12 ± 1.21 h and 3.12 h
Bioavailability ([2]; oral, mean N=4, listed as the undeuterated analog): 45.6%
tmax ([2]; oral, median (range) N=4, listed as H): 0.5 (0.5-1.0)^e h and 0.5^a h
SMILES: CN(C)c1nc(Cc2ccc(NC(=O)c3ccc(C(F)(F)F)cc3)cc2)nc(N(C)C)c1CC(=O)O [Undeuterated Analog, reference compound]
Plasma Concentrations ([1]; IV, 8 h, individual rats): 64.0 ng/mL and 173 ng/mL and 88.4 ng/mL and 12.0 ng/mL
Plasma Concentrations ([1]; IV, 24 h, individual rats): 12.0 ng/mL and 4.78 ng/mL and 3.29 ng/mL and <1.00 ng/mL
AUC0-t [1, 3]: 14,700 nM · h and 23,300 nM · h and 24,300 nM · h and 9,020 nM · h
AUC0-∞ [1, 3]: 14,700 nM · h and 23,300 nM · h and 24,400 nM · h and 9,090 nM · h
CL [1, 3]: 2.25 mL/min/kg and 1.43 mL/min/kg and 1.36 mL/min/kg and 3.66 mL/min/kg
Vss [1, 3]: 0.328 L/kg and 0.189 L/kg and 0.103 L/kg and 0.125 L/kg
Plasma Concentrations ([2]; oral, 0.25 h, individual rats): 959 ng/mL and 308 ng/mL and 1,520 ng/mL and 1,180 ng/mL and 1,910 nM and 614 nM and 3,030 nM and 2,350 nM
Plasma Concentrations ([2]; oral, 0.5 h, individual rats): 1,060 ng/mL and 355 ng/mL and 2,940 ng/mL and 1,590 ng/mL and 2,110 nM and 708 nM and 5,860 nM and 3,170 nM
Plasma Concentrations ([2]; oral, 1 h, individual rats): 744 ng/mL and 191 ng/mL and 3,180 ng/mL and 1,220 ng/mL and 1,480 nM and 381 nM and 6,340 nM and 2,430 nM
Plasma Concentrations ([2]; oral, 2 h, individual rats): 463 ng/mL and 104 ng/mL and 1,290 ng/mL and 548 ng/mL and 923 nM and 207 nM and 2,570 nM and 1,090 nM
Plasma Concentrations ([2]; oral, 4 h, individual rats): 68.4 ng/mL and 32.5 ng/mL and 559 ng/mL and 178 ng/mL and 64.8 nM and 1,120 nM and 355 nM
Plasma Concentrations ([2]; oral, 6 h, individual rats): 22.0 ng/mL and 24.1 ng/mL and 387 ng/mL and 93.3 ng/mL and 43.9 nM and 48.1 nM and 772 nM and 186 nM
Plasma Concentrations ([2]; oral, 8 h, individual rats): 12.3 ng/mL and 18.7 ng/mL and 217 ng/mL and 76.8 ng/mL and 24.5 nM and 37.3 nM and 433 nM and 153 nM
Plasma Concentrations ([2]; oral, 24 h, individual rats): <1.00 ng/mL and 2.99 ng/mL and 2.16 ng/mL and <1.99 nM and 5.96 nM and 4.31 nM
Plasma Concentrations ([2]; oral, 48 h, individual rats): <1.00 ng/mL and 1.57 ng/mL and <1.99 nM and 3.13 nM
AUC0-t [2, 4]: 3,880 nM · h and 1,280 nM · h and 19,300 nM · h and 7,820 nM · h
AUC0-∞ [2, 4]: 3,920 nM · h and 1,550 nM · h and 19,300 nM · h and 7,850 nM · h
CL/F [2, 4]: 8.48 mL/min/kg and 21.5 mL/min/kg and 1.72 mL/min/kg and 4.23 mL/min/kg
CL/F ([2]; oral, mean N=4, listed as H): 8.97^c ± 8.78^ mL/min/kg and 8.97 mL/min/kg

AUC0-∞ higher than that of the undeuterated analog [1, 5]: 28%
Extrapolated area of AUC0-∞, averaged, of total area [1, 5]: < 0.15%
clearance as percent of that of the undeuterated analog [1, 5]: 80%
clearance relative to the unlabeled drug ([1]; rat, in vivo): reduced clearance
AUC0-t higher than that of the undeuterated analog [2, 6]: 71%
AUC0-∞ higher than that of the undeuterated analog [2, 6]: 63%
Cmax higher than that of the undeuterated analog [2, 6]: 42%
Extrapolated area of AUC0-∞, averaged, of total area [2, 6]: < 1.5%
tmax ([2]; male, Han Wistar, rat, in vivo, po, 1.02 mg/kg): 1 h
MRT ([2]; male, Han Wistar, rat, in vivo, po, 1.02 mg/kg, MRT): 2.61 ± 0.708 h
tmax ([2]; male, Han Wistar, rat, in vivo, po, 1.02 mg/kg, tmax): 0.5 h
Bioavailability ([2]; male, Han Wistar, rat, in vivo, po, Bioavailability): 52.5%
bioavailability relative to the unlabeled drug ([2]; rat, in vivo): better bioavailability
biological inhibitory activity in vitro compared to the undeuterated analog (CRTH2): comparable
SMILES: [2H]C([2H])([2H])N(c1nc(Cc2ccc(NC(=O)c3ccc(C(F)(F)F)cc3)cc2)nc(N(C([2H])([2H])[2H])C([2H])([2H])[2H])c1CC(=O)O)C([2H])([2H])[2H] [Compound 1, [4,6-bis([^2H6]dimethylamino)-2-(4-{[4-(trifluoromethyl)benzoyl]amino}benzyl)pyrimidin-5-yl]acetic acid]
plasma concentrations compared with the undeuterated analog ([1]; rat, in vivo, iv): greater than those of the undeuterated analog
plasma concentrations compared with the undeuterated analog ([2]; rat, in vivo, po): greater than those of the undeuterated analog
